Source: patent publication US20230055500A1, “COMPOSITION FOR PREVENTING OR TREATING ISCHEMIA REPERFUSION INJURY COMPRISING NADPH OXIDASE 1 INHIBITOR AS ACTIVE INGREDIENT” (KYUNGPOOK NATIONAL UNIVERSITY INDUSTRY-ACADEMIC COOPERATION …, priority 2020, published 2023)
Entries after “also recorded” stand apart in the source; their conditions may differ.

Columns and labels:
ERK [1] = assay: MAPK pathway western blot in kidney tissue (IRI model); assay type: in vivo; details: C57BL/6 mice, renal IRI, 60 mg/kg intraperitoneal, FIG. 5a, 5b
Method: (§1) C57BL/6 mice were intraperitoneally injected with 60 mg/kg of ML171, a selective NOX inhibitor or excipient at a time, renal ischemia-reperfusion injury (IRI) was induced by clamping bilateral renal vessels for 30 min. MDCK cells were incubated with H2O2 (1.4 mM) for 1 h to induce oxidative stress and treated with ML171 (1 and 2.5 μM). Renal damage was estimated using renal function tests and histology. NOX expression, oxidative stress markers, apoptosis assays and MAPK pathways were also evaluated in renal tissue and MDCK cells.

ERK [2] = assay: MAPK pathway (ERK phosphorylation) in H2O2-treated MDCK cells; assay type: cell-based; details: H2O2 1.4 mM 1 h, ML171 1 and 2.5 μM, FIG. 8a, 8b
Method: as §1

MDCK cells [3] = assay: Apoptosis assays in H2O2-treated MDCK cells (Caspase-3 activity, BCL-2/BAX, TUNEL); assay type: cell-based; details: H2O2 1.4 mM 1 h, ML171 1 and 2.5 μM
Method: as §1

[4] = tested on: reactive oxygen species (ROS); assay: Reactive oxygen species measurement in the kidney (IRI model); assay type: in vivo; details: C57BL/6 mice, renal IRI, 60 mg/kg intraperitoneal; FIG. 2d, 2e
Method: as §1

MDCK cells [5] = assay: NOX-related gene and oxidative stress marker expression in H2O2-treated MDCK cells; assay type: cell-based; details: H2O2 1.4 mM 1 h, ML171 1 and 2.5 μM
Method: as §1

MDCK cells [6] = assay: ROS production in H2O2-treated MDCK cells; assay type: cell-based; details: H2O2 1.4 mM 1 h, ML171 1 and 2.5 μM, FIG. 6f
Method: as §1

NOX = NOX mRNA expression in mouse kidney (IRI model); assay type: in vivo; details: C57BL/6 mice, renal IRI, 60 mg/kg intraperitoneal; FIG. 2a, 2b
Method: as §1

[7] = tested on: renal ischemia-reperfusion injury (IRI); assay: Renal ischemia-reperfusion injury mouse model: renal function tests and histology; assay type: in vivo, C57BL/6 mice; details: for tissue damage due to ischemia-reperfusion (IRI-mediated damage): mouse model of renal ischemia reperfusion, overall statement
Method: as §1

apoptosis = assay: Apoptosis assays in the kidney (Caspase-3 activity, TUNEL, BCL-2/BAX; IRI model); assay type: in vivo; details: C57BL/6 mice, renal IRI, 60 mg/kg intraperitoneal
Method: as §1

SMILES: CC(=O)c1ccc2c(c1)Nc1ccccc1S2 [ML171]
- phosphorylation of ERK in kidney tissue (western blot) (ERK [1]): effectively reduced it; also recorded: affect ERK signaling
- ERK phosphorylation in MDCK cells (ERK [2]): significantly reduced and regulated this; also recorded: affect ERK signaling
- Caspase-3 activity (MDCK cells [3]; FIG. 7a): a decrease in Caspase-3 activity
- protein expression levels of apoptosis markers BCL-2 and BAX (MDCK cells [3]; FIG. 7b): apoptosis was significantly inhibited; also recorded: significant increase in Bcl-2 levels
- apoptosis pattern, intracellular TUNEL assay staining (MDCK cells [3]; FIG. 7c): effectively blocked it
- reactive oxygen species (ROS) in the kidney [4]: effectively blocked ROS
- changes in oxidative stress-related enzymes, SOD and GXP production (MDCK cells [5]): alleviated by ML171 treatment
- expression of NOX-related genes / oxidative stress markers (NOX1, NOX2, p40) (MDCK cells [5]; FIG. 6a-6e): effectively decreased; also recorded: reduced the expression of NOX1, NOX2 and p40
- ROS production in cells (MDCK cells [6]): significantly reduced ROS
- NOX mRNA expression level in mouse kidney (NOX): significantly reduced
- level of kidney damage in the blood (renal function test) ([7]; C57BL/6 mice, renal IRI (bilateral clamping 30 min), 60 mg/kg intraperitoneal, FIG. 1a, 1b): a significant decrease
- damage to renal tubular epithelial cells, PAS staining ([7]; C57BL/6 mice, renal IRI, 60 mg/kg intraperitoneal, FIG. 1c): reduced damage to renal tubular epithelial cells
- renal fibrosis, Trichrome stain ([7]; C57BL/6 mice, renal IRI, 60 mg/kg intraperitoneal, FIG. 4a, 4b): fibrosis was significantly reduced
- tissue damage due to ischemia-reperfusion (IRI-mediated damage) [7]: significantly attenuated IRI-mediated damage
- tissue damage due to ischemia-reperfusion (IRI-mediated damage) ([7]; listed as compound of Formula 1): exhibits an effect of alleviating tissue damage due to ischemia-reperfusion
- Caspase-3 activity in the kidney (apoptosis; FIG. 3a, 60 mg/kg): significant apoptosis alleviation effect; also recorded: reversed a decrease in Bcl-2 and an increase in Caspase-3 activity
- apoptosis, TUNEL assay histological staining of kidney (apoptosis; FIG. 3b): alleviated apoptosis
- protein expression levels of apoptosis markers BCL-2 and BAX in the kidneys (apoptosis; FIG. 3c, 60 mg/kg): effectively inhibited apoptosis; also recorded: reversed a decrease in Bcl-2
